From patent US10023559B2 (Hoffmann-La Roche Inc., priority 2014, dated 2018)

Experiments:
rat TAAR1 = rat TAAR1 (Rattus norvegicus (Rat), UniProt Q923Y9); experiment: Radioligand binding assay on rat TAAR1; conditions: for Ki: read-out: Ki(μM) rat, rat TAAR1, HEK-293 membranes, second value of cell pair mouse/rat
Method: (§1) Membrane Preparation and Radioligand Binding.
HEK-293 cells stably expressing rat TAAR1 were maintained at 37° C. and 5% CO2 in DMEM high glucose medium, containing fetal calf serum (10%, heat inactivated for 30 min at 56° C.), penicillin/streptomycin (1%), and 375 μg/ml geneticin (Gibco). Cells were released from culture flasks using trypsin/EDTA, harvested, washed twice with ice-cold PBS (without Ca^2+ and Mg^2+), pelleted at 1,000 rpm for 5 min at 4° C., frozen and stored at −80° C. Frozen pellets were suspended in 20 ml HEPES-NaOH (20 mM, pH 7.4) containing 10 mM EDTA and homogenized with a Polytron (PT 6000, Kinematica) at 14,000 rpm for 20 s. The homogenate was centrifuged at 48,000×g for 30 min at 4° C. Subsequently, the supernatant was removed and discarded, and the pellet resuspended in 20 ml HEPES-NaOH (20 mM, pH 7.4) containing 0.1 mM EDTA using the Polytron (20 s at 14,000 rpm). This procedure was repeated and the final pellet resuspended in HEPES-NaOH containing 0.1 mM EDTA and homogenized using the Polytron. Typically, aliquots of 2 ml membrane portions were stored at −80° C. With each new membrane batch the dissociation constant (Kd) was determined via a saturation curve. […] Nonspecific binding was defined as the amount of [H]—(S)-4-[(ethyl-phenyl-amino)-methyl]-4,5-dihydro-oxazol-2-ylamine bound in the presence of 10 M unlabeled ligand. All compounds were tested at a broad range of concentrations (10 pM to 10 μM) in duplicates. […] The 96 deep well plates were incubated for 1 hr at 4° C. Incubations were terminated by rapid filtration through Unifilter-96 plates (Packard Instrument Company) and glass filters GF/C (Perkin Elmer) presoaked for 1 hr in polyethylenimine (0.3%) and washed 3 times with 1 ml of cold binding buffer. After addition of 45 μl of Microscint 40 (PerkinElmer) the Unifilter-96 plate was sealed and after 1 hr the radioactivity counted using a TopCount Microplate Scintillation Counter (Packard Instrument Company).

mouse TAAR1 = mouse TAAR1 (Mus musculus (Mouse), UniProt Q923Y8); experiment: Radioligand binding assay on mouse TAAR1
mouse TAAR1, sequence (Q923Y8 whole entry): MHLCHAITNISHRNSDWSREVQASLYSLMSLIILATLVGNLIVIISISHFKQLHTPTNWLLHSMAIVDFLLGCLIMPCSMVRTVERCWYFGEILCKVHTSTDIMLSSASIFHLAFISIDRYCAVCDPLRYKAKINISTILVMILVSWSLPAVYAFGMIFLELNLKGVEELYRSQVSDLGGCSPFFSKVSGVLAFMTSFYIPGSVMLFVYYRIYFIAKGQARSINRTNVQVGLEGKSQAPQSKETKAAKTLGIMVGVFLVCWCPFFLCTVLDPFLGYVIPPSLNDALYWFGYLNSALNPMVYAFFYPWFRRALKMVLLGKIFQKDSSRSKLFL
Method: as §1
HEK-293 cells stably expressing mouse TAAR1 were maintained at 37° C. and 5% CO2 in DMEM high glucose medium, containing fetal calf serum (10%, heat inactivated for 30 min at 56° C.), penicillin/streptomycin (1%), and 375 μg/ml geneticin (Gibco). Cells were released from culture flasks using trypsin/EDTA, harvested, washed twice with ice-cold PBS (without Ca^2+ and Mg^2+), pelleted at 1,000 rpm for 5 min at 4° C., frozen and stored at −80° C. Frozen pellets were suspended in 20 ml HEPES-NaOH (20 mM, pH 7.4) containing 10 mM EDTA and homogenized with a Polytron (PT 6000, Kinematica) at 14,000 rpm for 20 s. The homogenate was centrifuged at 48,000×g for 30 min at 4° C. Subsequently, the supernatant was removed and discarded, and the pellet resuspended in 20 ml HEPES-NaOH (20 mM, pH 7.4) containing 0.1 mM EDTA using the Polytron (20 s at 14,000 rpm). This procedure was repeated and the final pellet resuspended in HEPES-NaOH containing 0.1 mM EDTA and homogenized using the Polytron. Typically, aliquots of 2 ml membrane portions were stored at −80° C. With each new membrane batch the dissociation constant (Kd) was determined via a saturation curve. […] Nonspecific binding was defined as the amount of ^3[H]—(S)-4-[(ethyl-phenyl-amino)-methyl]-4,5-dihydro-oxazol-2-ylamine bound in the presence of 10 M unlabeled ligand. All compounds were tested at a broad range of concentrations (10 pM to 10 μM) in duplicates. […] The 96 deep well plates were incubated for 1 hr at 4° C. Incubations were terminated by rapid filtration through Unifilter-96 plates (Packard Instrument Company) and glass filters GF/C (Perkin Elmer) presoaked for 1 hr in polyethylenimine (0.3%) and washed 3 times with 1 ml of cold binding buffer. After addition of 45 μl of Microscint 40 (PerkinElmer) the Unifilter-96 plate was sealed and after 1 hr the radioactivity counted using a TopCount Microplate Scintillation Counter (Packard Instrument Company).

rat TAAR1, sequence (Q923Y9 whole entry): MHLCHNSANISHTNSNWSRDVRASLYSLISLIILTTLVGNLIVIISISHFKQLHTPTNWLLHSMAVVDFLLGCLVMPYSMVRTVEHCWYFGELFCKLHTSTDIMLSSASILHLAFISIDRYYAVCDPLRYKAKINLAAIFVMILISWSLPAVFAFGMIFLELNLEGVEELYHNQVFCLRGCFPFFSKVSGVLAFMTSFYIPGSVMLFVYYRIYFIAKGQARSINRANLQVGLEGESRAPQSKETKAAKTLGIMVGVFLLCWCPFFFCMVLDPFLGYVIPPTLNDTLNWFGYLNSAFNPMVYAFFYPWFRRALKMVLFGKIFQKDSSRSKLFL

SMILES | Ki (rat TAAR1) [µM] | Ki (mouse TAAR1) [nM] | Kd (rat TAAR1; read-out: dissociation constant (Kd) of the radioligand, rat TAAR1 membranes, saturation curve, usual value) [nM] | Kd (mouse TAAR1; read-out: dissociation constant (Kd) of the radioligand, mouse TAAR1 membranes, saturation curve, usual value) [nM]
O=C(Nc1ccc(C[C@H]2CCN2)cc1)c1ccc(Cl)cc1 [Example 71, N-[4-[[(2S)-azetidin-2-yl]methyl]phenyl]-4-chloro-benzamide] | 0.0065 | 1 | – | –
CO[C@@H]1CN[C@H]1Cc1ccccc1 [Example 95, (2S,3R)-2-benzyl-3-methoxyazetidine] | 0.648 | 2770 | – | –
O=C(Nc1ccc(OC2CNC2)cc1F)c1[nH]nc(C2CC2)c1Cl [Example 36, N-[4-(azetidin-3-yloxy)-2-fluoro-phenyl]-4-chloro-3-cyclopropyl-1H-pyrazole-5-carboxamide] | 0.029 | 13.9 | – | –
CCc1n[nH]c(C(=O)Nc2ccc(C[C@H]3NC[C@H]3F)cc2)c1C [Example 103, 3-ethyl-N-(4-(((2R,3R)-3-fluoroazetidin-2-yl)methyl)phenyl)-4-methyl-1H-pyrazole-5-carboxamide] | 1.27 | 45.6 | – | –
O=C(Nc1ccc(C[C@H]2NC[C@H]2F)cc1)c1ccnc(C(F)(F)F)c1 [Example 121, N-(4-(((2R,3R)-3-fluoroazetidin-2-yl)methyl)phenyl)-2-(trifluoromethyl)isonicotinamide] | 0.809 | 7 | – | –
O=C(Nc1ccc(C[C@@H]2NC[C@@H]2F)cc1)c1ccnc(C(F)(F)F)c1 [Example 104, N-(4-(((2S,3S)-3-fluoroazetidin-2-yl)methyl)phenyl)-2-(trifluoromethyl)isonicotinamide] | 0.0231 | 10.8 | – | –
O=C(Nc1ccc(CC2(F)CNC2)cc1)c1n[nH]c(C2CC2)c1Cl [Example 56, 4-chloro-3-cyclopropyl-N-[4-[(3-fluoroazetidin-3-yl)methyl]phenyl]-1H-pyrazole-5-carboxamide] | 0.0151 | 3.4 | – | –
CC(C)c1cc(C(=O)Nc2ccc(C[C@@H]3NC[C@@H]3F)cc2)n(C)n1 [Example 131, N-(4-(((2S,3S)-3-fluoroazetidin-2-yl)methyl)phenyl)-3-isopropyl-1-methyl-1H-pyrazole-5-carboxamide] | 0.126 | 119 | – | –
O=C(Nc1ccc(OC2CNC2)cc1)c1[nH]nc(C2CC2)c1Br [Example 31, N-[4-(azetidin-3-yloxy)phenyl]-4-bromo-3-cyclopropyl-1H-pyrazole-5-carboxamide] | 0.0151 | 3.6 | – | –
CCc1n[nH]c(C(=O)Nc2ccc(C[C@@H]3NC[C@@H]3F)cc2)c1C [Example 102, 3-ethyl-N-(4-(((2S,3S)-3-fluoroazetidin-2-yl)methyl)phenyl)-4-methyl-1H-pyrazole-5-carboxamide] | 0.0875 | 14.8 | – | –
O=C(Nc1ccc(C=C2CNC2)cc1)Nc1cccc(Cl)c1 [Example 118, 1-[4-(azetidin-3-ylidenemethyl)phenyl]-3-(3-chlorophenyl)urea] | 0.0021 | 3.8 | – | –
O=C(Nc1ccc(OC2CNC2)cc1)c1cnc(OCC(F)(F)F)cn1 [Example 77, N-[4-(azetidin-3-yloxy)phenyl]-5-(2,2,2-trifluoroethoxy)pyrazine-2-carboxamide] | 0.0187 | 4 | – | –
O=C(Nc1ccc(SC2CNC2)cc1)c1cnc(C(F)(F)F)nc1 [Example 45, N-[4-(azetidin-3-ylsulfanyl)phenyl]-2-(trifluoromethyl)pyrimidine-5-carboxamide] | 0.129 | 35.5 | – | –
F[C@H]1CN[C@H]1Cc1ccccc1 [Example 90, (2S,3S)-2-benzyl-3-fluoroazetidine] | 0.274 | 4380 | – | –
O=C(Nc1ccc(C=C2CNC2)cc1)c1cnc(C(F)(F)F)nc1 [Example 59, N-[4-(azetidin-3-ylidenemethyl)phenyl]-2-(trifluoromethyl)pyrimidine-5-carboxamide] | 0.0079 | 8.9 | – | –
O=C(Nc1ccc(C[C@@H]2CCN2)cc1)c1cnc(C(F)(F)F)nc1 [Example 78, N-[4-[[(2R)-azetidin-2-yl]methyl]phenyl]-2-(trifluoromethyl)pyrimidine-5-carboxamide] | 0.269 | 29.3 | – | –
CN(c1ccc(NC(=O)c2ccnc(C(F)(F)F)c2)cc1)C1CNC1 [Example 2, N-[4-[azetidin-3-yl(methyl)amino]phenyl]-2-(trifluoromethyl)pyridine-4-carboxamide] | 0.211 | 27.2 | – | –
F[C@@H]1CN[C@H]1Cc1ccccc1 [Example 91, (2S,3R)-2-benzyl-3-fluoroazetidine] | 0.149 | 1070 | – | –
CCN(C[C@H]1COC(N)=N1)c1ccccc1 [reference compound] | – | – | ~2.3 | ~0.7
COc1cc(C(=O)Nc2ccc(C[C@H]3NC[C@H]3F)cc2)ccn1 [Example 120, N-(4-(((2R,3R)-3-fluoroazetidin-2-yl)methyl)phenyl)-2-methoxyisonicotinamide] | > 1.5 | 10.3 | – | –
c1ccc(C[C@H]2CCN2)cc1 [Example 89, (S)-2-benzylazetidine] | 0.0822 | 1520 | – | –

Second part, led by results:

Ki (rat TAAR1) [µM] | Ki (mouse TAAR1) [nM] | SMILES | Kd (rat TAAR1; read-out: dissociation constant (Kd) of the radioligand, rat TAAR1 membranes, saturation curve, usual value) [nM] | Kd (mouse TAAR1; read-out: dissociation constant (Kd) of the radioligand, mouse TAAR1 membranes, saturation curve, usual value) [nM]
0.0204 | 2.3 | CCOc1ccc(C(=O)Nc2ccc(C[C@@H]3NC[C@@H]3F)cc2)cn1 [Example 128, 6-ethoxy-N-(4-(((2S,3S)-3-fluoroazetidin-2-yl)methyl)phenyl)nicotinamide] | – | –
0.552 | 1990 | FC1(Cc2ccccc2)CNC1 [Example 46, 3-benzyl-3-fluoro-azetidine] | – | –
0.0182 | 3 | O=C(Nc1ccc(CC2(F)CNC2)cc1)c1ccc(Cl)nc1 [Example 54, 6-chloro-N-[4-[(3-fluoroazetidin-3-yl)methyl]phenyl]pyridine-3-carboxamide] | – | –
1.03 | 478 | O=C(Nc1ccccc1)c1ccc(OC2CNC2)cc1 [Example 20, 4-(azetidin-3-yloxy)-N-phenyl-benzamide] | – | –
0.0178 | 3.3 | O=C(Nc1ccc(OC2CNC2)cc1)c1[nH]nc(C2CC2)c1Cl [Example 13, N-(4-(azetidin-3-yloxy)phenyl)-4-chloro-3-cyclopropyl-1H-pyrazole-5-carboxamide] | – | –
1.18 | 336 | Cc1cc(C(=O)Nc2ccc(C[C@H]3NC[C@H]3F)cc2)nc(C(F)(F)F)n1 [Example 119, N-(4-(((2R,3R)-3-fluoroazetidin-2-yl)methyl)phenyl)-6-methyl-2-(trifluoromethyl)pyrimidine-4-carboxamide] | – | –
> 1.5 | 55.4 | O=C(Nc1ccc(C[C@H]2NC[C@H]2F)cc1)c1cnc(C2CC2)nc1 [Example 124, 2-cyclopropyl-N-(4-(((2R,3R)-3-fluoroazetidin-2-yl)methyl)phenyl)pyrimidine-5-carboxamide] | – | –
0.0181 | 8.1 | FC(F)(F)c1nccc(Nc2ccc(C=C3CNC3)cc2)n1 [Example 62, N-[4-(azetidin-3-ylidenemethyl)phenyl]-2-(trifluoromethyl)pyrimidin-4-amine] | – | –
0.0361 | 42.1 | O=C(Nc1ccc(CC2(F)CNC2)cc1)c1cnc(OCC(F)(F)F)nc1 [Example 69, N-[4-[(3-fluoroazetidin-3-yl)methyl]phenyl]-2-(2,2,2-trifluoroethoxy)pyrimidine-5-carboxamide] | – | –
0.0887 | 414 | O=C(Nc1ccc(OC2CNC2)cc1)c1cc(C2CC2)n[nH]1 [Example 10, N-(4-(azetidin-3-yloxy)phenyl)-3-cyclopropyl-1H-pyrazole-5-carboxamide] | – | –
0.165 | 55 | FC(F)(F)c1nccc(Nc2ccc(OC3CNC3)cc2)n1 [Example 8, N-[4-(azetidin-3-yloxy)phenyl]-2-(trifluoromethyl)pyrimidin-4-amine] | – | –
0.261 | 57.1 | CCc1ncc(C(=O)Nc2ccc(OC3CNC3)cc2)cn1 [Example 15, N-[4-(azetidin-3-yloxy)phenyl]-2-ethyl-pyrimidine-5-carboxamide] | – | –
0.0059 | 16.1 | O=C(Nc1ccc(CC2(F)CNC2)cc1)c1cnc(C(F)(F)F)nc1 [Example 55, N-[4-[(3-fluoroazetidin-3-yl)methyl]phenyl]-2-(trifluoromethyl)pyrimidine-5-carboxamide] | – | –
0.055 | 8.9 | O=C(Nc1ccc(C[C@@H]2NC[C@@H]2F)cc1)c1cnc(C2CC2)nc1 [Example 129, 2-cyclopropyl-N-(4-(((2S,3S)-3-fluoroazetidin-2-yl)methyl)phenyl)pyrimidine-5-carboxamide] | – | –
0.0024 | 12.2 | CCc1cc(C(=O)Nc2cc(F)c(C=C3CNC3)c(F)c2)nc(C(F)(F)F)n1 [Example 87, N-(4-(azetidin-3-ylidenemethyl)-3,5-difluorophenyl)-6-ethyl-2-(trifluoromethyl)pyrimidine-4-carboxamide] | – | –
0.0998 | 793 | Brc1ccc(C=C2CNC2)cc1 [Example 50, 3-[(4-bromophenyl)methylene]azetidine] | – | –
0.0224 | 22.9 | Cc1cc(C(=O)Nc2ccc(C[C@@H]3NC[C@@H]3F)cc2)nc(C(F)(F)F)n1 [Example 126, N-(4-(((2S,3S)-3-fluoroazetidin-2-yl)methyl)phenyl)-6-methyl-2-(trifluoromethyl)pyrimidine-4-carboxamide] | – | –
0.0808 | 64.5 | CCc1n[nH]c(C(=O)Nc2ccc(OC3CNC3)cc2)c1C [Example 11, N-(4-(azetidin-3-yloxy)phenyl)-3-ethyl-4-methyl-1H-pyrazole-5-carboxamide] | – | –
0.0385 | 61.4 | FC(F)(F)c1cnc(Nc2ccc(C=C3CNC3)cc2)nc1 [Example 63, N-[4-(azetidin-3-ylidenemethyl)phenyl]-5-(trifluoromethyl)pyrimidin-2-amine] | – | –
0.0672 | 2030 | CCn1cc(Cl)c(C(=O)Nc2ccc(OC3CNC3)cc2)n1 [Example 22, N-[4-(azetidin-3-yloxy)phenyl]-4-chloro-1-ethyl-pyrazole-3-carboxamide] | – | –
